Measurements published in patent publication US9670227B2, “Thienopyrimidine derivatives, a process for their preparation and pharmaceutical compositions containing them” (LES LABORATOIRES SERVIER, priority 2013, dated 2017).
Where two headings read alike, the source gives them in different places.

Columns and labels:
Mcl-1 protein = Mcl-1 protein (UniProtKB primary accession number: Q07820) (Homo sapiens, UniProt Q07820); test: Inhibition of Mcl-1 by fluorescence polarisation, Method 1; format: binding; conditions: fluorescence polarisation test; Method 2 values are underlined in the patent (underlining not visible here); read-out: IC50 (M) Mcl-1 FP
Chain of Mcl-1 protein (Q07820 whole entry): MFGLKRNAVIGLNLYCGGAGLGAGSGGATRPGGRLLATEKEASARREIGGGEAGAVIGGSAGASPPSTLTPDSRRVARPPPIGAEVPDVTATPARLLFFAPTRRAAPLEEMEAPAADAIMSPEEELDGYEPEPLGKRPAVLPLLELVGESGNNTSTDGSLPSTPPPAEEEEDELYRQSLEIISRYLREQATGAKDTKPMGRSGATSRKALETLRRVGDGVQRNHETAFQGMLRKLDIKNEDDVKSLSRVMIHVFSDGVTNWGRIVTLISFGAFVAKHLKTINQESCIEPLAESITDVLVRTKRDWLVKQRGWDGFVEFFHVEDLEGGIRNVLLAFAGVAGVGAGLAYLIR
How it was run: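 An 11-point DMSO dilution of compound is mixed with buffer (10 mM HEPES, 150 mM NaCl, 0.05% Tween 20, pH 7.4) carrying 1 nM fluorescein-labelled ligand and 5 nM Mcl-1, final concentrations. Displacement is monitored by fluorescence polarisation.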

[1] = system: H929 multiple myeloma tumour line; test: In vitro cytotoxicity, Microculture Tetrazolium Assay; format: cell-based; conditions: H929 cells, 48 hours exposure, MTT, read-out: IC50 (μM) MTT H929
Protocol: The cytotoxicity studies were carried out on the H929 multiple myeloma tumour line.
The cells are distributed onto microplates and exposed to the test compounds for 48 hours.

Row | SMILES | IC50 (Mcl-1 protein) [M] | IC50 ([1]; Homo sapiens, NCI-H929, 48 h) [µM] | IC50 [1] [µM]
1 | Cc1c(-c2c(-c3ccc(F)o3)sc3ncnc(OC(Cc4ccccc4OCc4ccnn4CC(F)(F)F)C(=O)O)c23)ccc(OCCN(C)C)c1Cl [Example 205, (2R)-2-{[(5Sa)-5-{3-chloro-4-[2-(dimethylamino)ethoxy]-2-methylphenyl}-6-(5-fluorofuran-2-yl)thieno[2,3-d]pyrimidin-4-yl]oxy}-3-(2-{[1-(2,2,2-trifluoroethyl)-1H-pyrazol-5-yl]methoxy}phenyl)propanoic acid] | 3.8e-09 | 0.028 | 
2 | Cc1c(-c2c(-c3ccco3)sc3ncnc(OC(Cc4ccccc4O)C(=O)O)c23)ccc(OCCN2CCN(C)CC2)c1Cl [Example 207, (2R)-2-{[-[(5Sa)-5-{3-chloro-2-methyl-4-[2-(4-methylpiperazin-1-yl)ethoxy]phenyl}-6-(furan-2-yl)thieno[2,3-d]pyrimidin-4-yl]oxy}-3-(2-hydroxyphenyl)propanoic acid] | 6.5e-09 | 0.186 | 
3 | Cc1c(-c2c(-c3ccco3)sc3ncnc(OC(Cc4ccccc4OC(C)c4ccncc4)C(=O)O)c23)ccc(OCCN2CCN(C)CC2)c1Cl [Example 208, (2R)-2-{[(5Sa)-5-{3-chloro-2-methyl-4-[2-(4-methylpiperazin-1-yl)ethoxy]phenyl}-6-(furan-2-yl)thieno[2,3-d]pyrimidin-4-yl]oxy}-3-{2-[(1R)-1-(pyridin-4-yl)ethoxy]phenyl}propanoic acid] | 5.5e-09 | 0.571 | 
4 | Cc1c(-c2c(-c3ccco3)sc3ncnc(OC(Cc4ccccc4OC4CCCC4)C(=O)O)c23)ccc(OCCN2CCN(C)CC2)c1Cl [Example 212, (2R)-2-{[(5Sa)-5-{3-chloro-2-methyl-4-[2-(4-methylpiperazin-1-yl)ethoxy]phenyl}-6-(furan-2-yl)thieno[2,3-d]pyrimidin-4-yl]oxy}-3-[2-(cyclopentyloxy)phenyl]propanoic acid] | 1.6e-08 | 0.616 | 
5 | Cc1c(-c2c(-c3ccco3)sc3ncnc(OC(Cc4ccccc4OC4CCN(C)C4)C(=O)O)c23)ccc(OCCN2CCN(C)CC2)c1Cl [Example 214, (2R)-2-{[(5Sa)-5-{3-chloro-2-methyl-4-[2-(4-methylpiperazin-1-yl)ethoxy]phenyl}-6-(furan-2-yl)thieno[2,3-d]pyrimidin-4-yl]oxy}-3-{2-[(1-methylpyrrolidin-3-yl)oxy]phenyl}propanoic acid] | 9.3e-09 | 0.897 | 
6 | C#CCOc1ccccc1CC(Oc1ncnc2sc(-c3ccco3)c(-c3ccc(OCCN4CCN(C)CC4)c(Cl)c3C)c12)C(=O)O [Example 216, (2R)-2-{[(5Sa)-5-{3-chloro-2-methyl-4-[2-(4-methylpiperazin-1-yl)ethoxy]phenyl}-6-(furan-2-yl)thieno[2,3-d]pyrimidin-4-yl]oxy}-3-[2-(prop-2-yn-1-yloxy)phenyl]propanoic acid] | 8.5e-09 | 0.217 | 
7 | Cc1c(-c2c(-c3ccco3)sc3ncnc(OC(Cc4ccccc4OCC(=O)N(C)C)C(=O)O)c23)ccc(OCCN2CCN(C)CC2)c1Cl [Example 217, (2R)-2-{[(5Sa)-5-{3-chloro-2-methyl-4-[2-(4-methylpiperazin-1-yl)ethoxy]phenyl}-6-(furan-2-yl)thieno[2,3-d]pyrimidin-4-yl]oxy}-3-{2-[2-(dimethylamino)-2-oxoethoxy]phenyl}propanoic acid] | 5.3e-09 | 1.48 | 
8 | CCCCNC(=O)COc1ccccc1CC(Oc1ncnc2sc(-c3ccco3)c(-c3ccc(OCCN4CCN(C)CC4)c(Cl)c3C)c12)C(=O)O [Example 220, (2R)-3-{2-[2-(butylamino)-2-oxoethoxy]phenyl}-2-{[(5Sa)-5-{3-chloro-2-methyl-4-[2-(4-methylpiperazin-1-yl)ethoxy]phenyl}-6-(furan-2-yl)thieno[2,3-d]pyrimidin-4-yl]oxy}propanoic acid] | 9e-09 | 0.277 | 
9 | Cc1c(-c2c(-c3ccco3)sc3ncnc(OC(Cc4ccccc4OCc4cc(Cl)ccn4)C(=O)O)c23)ccc(OCCN2CCN(C)CC2)c1Cl [Example 222, (2R)-2-{[(5Sa)-5-{3-chloro-2-methyl-4-[2-(4-methylpiperazin-1-yl)ethoxy]phenyl}-6-(furan-2-yl)thieno[2,3-d]pyrimidin-4-yl]oxy}-3-{2-[(4-chloropyridin-2-yl)methoxy]phenyl}propanoic acid] | 7.4e-09 | 0.314 | 
10 | Cc1cc(COc2ccccc2CC(Oc2ncnc3sc(-c4ccco4)c(-c4ccc(OCCN5CCN(C)CC5)c(Cl)c4C)c23)C(=O)O)n(C)n1 [Example 225, (2R)-2-{[(5Sa)-5-{3-chloro-2-methyl-4-[2-(4-methylpiperazin-1-yl)ethoxy]phenyl}-6-(furan-2-yl)thieno[2,3-d]pyrimidin-4-yl]oxy}-3-{2-[(1,3-dimethyl-1H-pyrazol-5-yl)methoxy]phenyl}propanoic acid] | 8.4e-09 | 0.105 | 
11 | Cc1c(-c2c(-c3ccco3)sc3ncnc(O[C@H](Cc4ccccc4OCc4cc(C5CC5)nn4C)C(=O)O)c23)ccc(OCCN2CCN(C)CC2)c1Cl [Example 226, (2R)-2-{[(5Sa)-5-{3-chloro-2-methyl-4-[2-(4-methylpiperazin-1-yl)ethoxy]phenyl}-6-(furan-2-yl)thieno[2,3-d]pyrimidin-4-yl]oxy}-3-{2-[(3-cyclopropyl-1-methyl-1H-pyrazol-5-yl)methoxy]phenyl}propanoic acid] | 2.4e-08 |  | 0.311

The remaining molecules from weak to strong by IC50 (Mcl-1 protein), led by results:

Row | IC50 (Mcl-1 protein) [M] | SMILES | IC50 ([1]; Homo sapiens, NCI-H929, 48 h) [µM] | IC50 [1] [µM]
12 | 1.4e-08 | COc1ccnc(COc2ccccc2CC(Oc2ncnc3sc(-c4ccco4)c(-c4ccc(OCCN5CCN(C)CC5)c(Cl)c4C)c23)C(=O)O)c1 [Example 223, (2R)-2-{[(5Sa)-5-{3-chloro-2-methyl-4-[2-(4-methylpiperazin-1-yl)ethoxy]phenyl}-6-(furan-2-yl)thieno[2,3-d]pyrimidin-4-yl]oxy}-3-{2-[(4-methoxypyridin-2-yl)methoxy]phenyl}propanoic acid] | 0.346 | 
13 | 1e-08 | Cc1c(-c2c(-c3ccco3)sc3ncnc(OC(Cc4ccccc4OC(C)C)C(=O)O)c23)ccc(OCCN2CCN(C)CC2)c1Cl [Example 210, (2R)-2-{[(5Sa)-5-{3-chloro-2-methyl-4-[2-(4-methylpiperazin-1-yl)ethoxy]phenyl}-6-(furan-2-yl)thieno[2,3-d]pyrimidin-4-yl]oxy}-3-[2-(propan-2-yloxy)phenyl]propanoic acid] | 0.406 | 
14 | 9.9e-09 | Cc1c(-c2c(-c3ccco3)sc3ncnc(OC(Cc4ccccc4OCC(=O)Nc4ccccc4)C(=O)O)c23)ccc(OCCN2CCN(C)CC2)c1Cl [Example 219, (2R)-2-{[(5Sa)-5-{3-chloro-2-methyl-4-[2-(4-methylpiperazin-1-yl)ethoxy]phenyl}-6-(furan-2-yl)thieno[2,3-d]pyrimidin-4-yl]oxy}-3-{2-[2-oxo-2-(phenylamino)ethoxy]phenyl}propanoic acid] | 0.191 | 
15 | 8e-09 | Cc1c(-c2c(-c3ccc(F)o3)sc3ncnc(OC(Cc4ccccc4OCc4cnccn4)C(=O)O)c23)ccc(OCCN(C)C)c1Cl [Example 206, (2R)-2-{[(5Sa)-5-{3-chloro-4-[2-(dimethylamino)ethoxy]-2-methylphenyl}-6-(5-fluorofuran-2-yl)thieno[2,3-d]pyrimidin-4-yl]oxy}-3-[2-(pyrazin-2-ylmethoxy)phenyl]propanoic acid] | 0.135 | 
16 | 8e-09 | CCOc1ccccc1CC(Oc1ncnc2sc(-c3ccco3)c(-c3ccc(OCCN4CCN(C)CC4)c(Cl)c3C)c12)C(=O)O [Example 215, (2R)-2-{[(5Sa)-5-{3-chloro-2-methyl-4-[2-(4-methylpiperazin-1-yl)ethoxy]phenyl}-6-(furan-2-yl)thieno[2,3-d]pyrimidin-4-yl]oxy}-3-(2-ethoxyphenyl)propanoic acid] | 0.203 | 
17 | 6.5e-09 | CNC(=O)COc1ccccc1CC(Oc1ncnc2sc(-c3ccco3)c(-c3ccc(OCCN4CCN(C)CC4)c(Cl)c3C)c12)C(=O)O [Example 218, (2R)-2-{[(5Sa)-5-{3-chloro-2-methyl-4-[2-(4-methylpiperazin-1-yl)ethoxy]phenyl}-6-(furan-2-yl)thieno[2,3-d]pyrimidin-4-yl]oxy}-3-{2-[2-(methylamino)-2-oxoethoxy]phenyl}propanoic acid] | 0.805 | 
18 | 6.3e-09 | Cc1c(-c2c(-c3ccco3)sc3ncnc(OC(Cc4ccccc4OCC(F)(F)F)C(=O)O)c23)ccc(OCCN2CCN(C)CC2)c1Cl [Example 221, (2R)-2-{[(5Sa)-5-{3-chloro-2-methyl-4-[2-(4-methylpiperazin-1-yl)ethoxy]phenyl}-6-(furan-2-yl)thieno[2,3-d]pyrimidin-4-yl]oxy}-3-[2-(2,2,2-trifluoroethoxy)phenyl]propanoic acid] | 0.059 | 
19 | 4.9e-09 | CCn1nccc1COc1ccccc1CC(Oc1ncnc2sc(-c3ccc(F)o3)c(-c3ccc(OCCN(C)C)c(Cl)c3C)c12)C(=O)O [Example 204, (2R)-2-{[(5Sa)-5-{3-chloro-4-[2-(dimethylamino)ethoxy]-2-methylphenyl}-6-(5-fluorofuran-2-yl)thieno[2,3-d]pyrimidin-4-yl]oxy}-3-{2-[(1-ethyl-1H-pyrazol-5-yl)methoxy]phenyl}propanoic acid] | 0.034 | 
20 | 3.7e-09 | Cc1c(-c2c(-c3ccco3)sc3ncnc(O[C@H](Cc4ccccc4OCc4cc(-c5ccccc5)ncn4)C(=O)O)c23)ccc(OCCN2CCN(C)CC2)c1Cl [Example 224, (2R)-2-{[(5Sa)-5-{3-chloro-2-methyl-4-[2-(4-methylpiperazin-1-yl)ethoxy]phenyl}-6-(furan-2-yl)thieno[2,3-d]pyrimidin-4-yl]oxy}-3-{2-[(6-phenylpyrimidin-4-yl)methoxy]phenyl}propanoic acid] |  | 0.049
